Results published in paper PMC5387716, “Discovery of monocarbonyl curcumin-BTP hybrids as STAT3 inhibitors for drug-sensitive and drug-resistant breast cancer therapy” (Scientific Reports, 2017).

Assays:
Assay type in all cases: cell-based, human
[1] = tested on: MCF-7/DOX cells; assay: MTT anti-proliferative assay, MCF-7/DOX; details: Homo sapiens, MCF7-DOX; MTT, 48 h; read-out: MCF-7/DOX IC50 ± SD
Description: All cell lines were purchased from Cell Bank of Shanghai Institute of Biochemistry and Cell Biology, Chinese Academy of Sciences (Shanghai, China). Human breast carcinoma cells (MCF-7 and MCF-7/DOX), breast epithelial cells (MCF-10A) and normal human liver cells (LO2) were maintained in RPMI-1640 medium. All cells were supplemented with 12% fetal bovine serum containing 50 μg/ml penicillin and 50 μg/ml streptomycin. Cells were grown to 80% confluency in a tissue culture flask at 37 °C in a humidified atmosphere containing 5% CO2, and then were trypsinized with 1 × Trypsin-Versene and split. The MCF-7/DOX cell line we used was established from its parental cell line MCF-7 cell by gradually increasing the concentration of DOX to which the cells were exposed in a stepwise manner over a period of 8 months. […] The cells were incubated in drug-free medium for at least 1 week before use.
Cells (MCF-7, MCF-7/DOX, MCF-10A, LO2) were seeded in 96-well plates at a density of 3,000–6,000 cells per well. The cells were incubated overnight (16 h) in a humidified 5% CO2 incubator at 37 °C. After media removal, different concentrations of test compounds were added in triplicate to the plates in 200 μL of fresh media and were incubated with the cells at 37 °C for 48 h. […] Cell viability was evaluated using 3-(4, 5-dimethylthiazolyl)-2,5-diphenyltetrazoliumbromide (MTT). The absorbance was read by an ELISA reader (SpectraMax Plus384, Molecular Devices, Sunnyvale, CA) at a test wavelength of 570 nm and a reference wavelength of 630 nm. Cell viability was calculated using the following formula: […]

[2] = tested on: Bax; assay: Western blot of Bax; details: MCF-7 and MCF-7/DOX cells, 24 h
Description: (§1) MCF-7 or MCF-7/DOX cells were incubated with various concentrations of 6b for 24 h. After trypsinization, cells were treated with 1× RIPA lysis buffer (50 mM Tris–HCl, pH 7.4, 150 mM NaCl, 0.25% deoxycholic acid, 1% NP-40, 1 mM EDTA and protease inhibitors) (Amresco, Solon, USA) to extract the total proteins. An aliquot of proteins from the total cell lysates (30 to 60 μg/lane) was separated by sodium dodecyl sulfate (10%) polyacrylamide gel electrophoresis (SDS–PAGE, Bio-Rad Laboratories, Hercules, CA), wet-transferred to NC membrane (Bio-Rad Laboratories, Hercules, CA) and blotted with primary antibodies specific for STAT3, p-STAT3, p-Jak2, Jak2, p-Src, Src, Erk, P-Erk, PARP, cleaved PARP, Bcl-2, Bax, Cyclin D1, P-gp and GAPDH. Bound immuno-complexes were detected using ChemiDOC™ XRS + system (Bio-Rad Laboratories, Hercules, CA).

[3] = tested on: Cyclin D1 gene; assay: Quantitative real-time RT-PCR of Cyclin D1; details: 24 h
Description: Levels of mRNA expression were analyzed with the RT-PCR assay, with total RNA isolated from MCF-7 or MCF-7/DOX cells using an EASYspin Plus tissue/cell RNA extraction kit (Aidlab Biotechnologies Co. Ltd). RNA was quantified by measuring absorption at 260 nm and 1 μg of RNA was reverse transcribed to cDNA using the Transcriptor First Strand cDNA Synthesis Kit (Roche Diagnostics, Basel, Switzerland). Thermal cycling conditions included 95 °C initial denaturation for 5 min, followed by 40 cycles of denaturation (10 s at 95 °C), annealing (15 s at 60 °C) and extension (15 s at 72 °C with a single fluorescence measurement), a melt curve program (60–95 °C with a 0.11 °C/s heat increase and continuous fluorescence measurement) and a cooling step to 40 °C. The Δ cycle threshold method was used for the calculation of relative differences in mRNA abundance with a LightCycler 480 (Roche Molecular Biochemicals, Mannheim, Germany). The data were normalized to the expression of GAPDH. The results were expressed as fold-changes. The RT-PCR primers that were used in this study are listed in the supporting information.

[4] = tested on: P-gp; assay: Western blot of P-gp; details: MCF-7/DOX cells, 24 h
Description: as §1

[5] = tested on: MCF-7 cells; assay: Colony survival assay, MCF-7; details: 24 h treatment, 14 d culture
Description: MCF-7 or MCF-7/DOX cells were cultured a 6-well plate at a density of 800–1,000 cells/well with regular growth medium. Cells were treated for 24 h with the vehicle and 6b at 0.15–1 μM on the following day. Cells were allowed to grow for 10–14 d until colonies were visible. Crystal violet solution (Sigma, St. Louis, MO, USA) was used to stain the colonies for 4 hours and colonies were imaged.

[6] = tested on: MCF-7 cells; assay: Flow cytometry of the cell cycle, MCF-7; details: MCF-7, 24 h
Description: MCF-7 or MCF-7/DOX cells were plated in 6-well culture plates (1.5 × 10^5 cells per well). After incubation overnight, various concentrations of 6b or curcumin were added and cells were incubated for 24 h. Cells were harvested, washed with cold PBS, and incubated with pre-cooled 70% ethanol for a minimum of 4 h at 4 °C to fix them. The cells were then centrifuged, carefully aspirated from the supernatant, and re-suspended in a propidium iodide (final concentration, 40 μg/ml) and RNase A (final concentration, 100 μg/ml) solution at a final cell density of 0.5 × 10^6 cells/ml. The suspension was incubated at 37 °C for 30 min prior to analysis by flow cytometry.

[7] = tested on: STAT3; assay: IL-6 induced STAT3 phosphorylation (western blot); details: 6 h, IL-6 50 ng/mL 30 min
Description: MCF-7 or MCF-7/DOX cells were seeded in 6-well plates and allowed to adhere overnight. The following day, the cells were serum-starved. The cells were then left untreated or were treated with 6b (0.5–4 μM). After 6 h, the untreated and 6b-treated cells were stimulated with IL-6 (50 ng/ml). The cells were harvested after 30 min and analyzed by western blot.

Compound: COc1ccc(/C=C/C(=O)N2CCN(C(=O)C3=Cc4cc(Br)ccc4S3(=O)=O)CC2)cc1 [Compound 6b, (E)-1-(4-(5-bromo-1,1-dioxidobenzo[b]thiophene-2-carbonyl)piperazin-1-yl)-3-(4-methoxyphenyl)prop-2-en-1-one]
- IC50 [1]: 0.4 ± 0.01 µM
- expression of Bax (protein) [2]: increased
- decrease in the gene expression level of Cyclin D1 ([3]; MCF-7/DOX cells, 1.0 μM): 18.5%
- decrease in the gene expression level of Cyclin D1 ([3]; MCF-7/DOX cells, 2.0 μM): 51.0%
- decrease in the gene expression level of Cyclin D1 ([3]; MCF-7/DOX cells, 4.0 μM): 75.0%
- Cyclin D1 gene level (in words) ([3]; MCF-7 and MCF-7/DOX cells): decreased in a dose-dependent manner
- decrease in the gene expression level of Cyclin D1 ([3]; MCF-7 cells, 1.0 μM): 16.0%
- decrease in the gene expression level of Cyclin D1 ([3]; MCF-7 cells, 2.0 μM): 28.4%
- decrease in the gene expression level of Cyclin D1 ([3]; MCF-7 cells, 4.0 μM): 45.5%
- P-gp expression [4]: decreased P-gp expression in MCF-7/DOX cells in a dose-dependent manner
- clonogenic ability / colony formation ([5]; MCF-7, 0.25 μM): significant reduction in clonogenic ability
- clonogenic ability / colony formation ([5]; MCF-7, 0.5 μM): almost a cessation of colony formation
- cells in the Sub-G1 phase [6]: significant increase
- percentage of cells in S phase [6]: increased
- STAT3 phosphorylation induced by IL-6 ([7]; MCF-7, 4 μM): almost completely abolished
- IL-6-induced phosphorylation levels of STAT3 ([7]; MCF-7, low concentration (0.5–4 μM tested)): decreased
